In ChEMBL document CHEMBL1152932, “Inhibitory effects of phloroglucinol derivatives isolated from Ecklonia stolonifera on Fc(epsilon)RI expression” (Bioorg Med Chem, 2009):

Key:
[1] = target: T1, High affinity immunoglobulin epsilon receptor subunit alpha (Homo sapiens) (UniProt P12319); assay: Inhibition of Fc-epsilonR1-mediated [Ca2+]i elevation in anti-human Fc-epsilonR1 antibody-stimulated human KU-812F cells; assay type: cell-based
T1 sequence (whole entry): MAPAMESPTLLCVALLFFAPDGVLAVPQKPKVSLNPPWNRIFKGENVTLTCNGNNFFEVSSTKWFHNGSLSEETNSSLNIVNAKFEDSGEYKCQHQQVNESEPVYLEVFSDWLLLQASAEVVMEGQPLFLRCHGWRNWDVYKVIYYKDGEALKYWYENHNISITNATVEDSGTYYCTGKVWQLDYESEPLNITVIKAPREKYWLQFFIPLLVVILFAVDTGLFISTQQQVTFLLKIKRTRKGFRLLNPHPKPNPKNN

[2] = tested on: KU-812F; assay: Inhibition of Fc-epsilonR1 alpha mRNA expression in anti-human Fc-epsilonR1 antibody-stimulated human KU-812F cells after 24 hrs by RT-PCR; assay type: functional, cell-based
[3] = tested on: KU-812F; assay: Inhibition of Fc-epsilonR1 protein expression in anti-human Fc-epsilonR1 antibody-stimulated human KU-812F cells after 24 hrs by Western blotting; assay type: functional, cell-based
[4] = target: T1, High affinity immunoglobulin epsilon receptor subunit alpha (Homo sapiens); assay: Inhibition of Fc-epsilonR1-mediated histamine release in anti-human Fc-epsilonR1 antibody-stimulated human KU-812F cells by spectrofluorimetry; assay type: cell-based
[5] = Inhibition of Fc-epsilonR1 expression in anti-human Fc-epsilonR1 antibody-stimulated human KU-812F cells at 25 uM after 24 hrs by flow cytometry; assay type: functional
[6] = Inhibition of Fc-epsilonR1 expression in anti-human Fc-epsilonR1 antibody-stimulated human KU-812F cells at 50 uM after 24 hrs by flow cytometry; assay type: functional
[7] = Inhibition of Fc-epsilonR1 expression in anti-human Fc-epsilonR1 antibody-stimulated human KU-812F cells at 10 uM after 24 hrs by flow cytometry; assay type: functional
[8] = Inhibition of Fc-epsilonR1 expression in anti-human Fc-epsilonR1 antibody-stimulated human KU-812F cells at 5 uM after 24 hrs by flow cytometry; assay type: functional

Q: With `Oc1cc(O)cc(Oc2c(O)cc(O)c3c2Oc2c(O)cc4oc5c(Oc6cc(O)cc(O)c6)c(O)cc(O)c5c4c2O3)c1` as the compound, how does the Activity [1] read?
A: The Activity was “Dose-dependent effect”.

Q: What about the Activity [2] of the same compound?
A: The Activity was “Dose-dependent effect”.

Q: And the Activity [3]?
A: Its Activity is “Dose-dependent effect”.

Q: And the Activity [4]?
A: The Activity was “Dose-dependent effect”.

Q: With `Oc1cc(O)c2oc3cc(O)c4oc5cc(O)cc(O)c5oc4c3oc2c1` [DIOXINODEHYDROECKOL] as the compound, how does the Activity [1] read?
A: The Activity was “Dose-dependent effect”.

Q: What about the Activity [2] of the same compound?
A: Its Activity is “Dose-dependent effect”.

Q: And the inhibition at 25 µM [5]?
A: The inhibition at 25 µM was 19.5%.

Q: And the Activity [3]?
A: Its Activity is “Dose-dependent effect”.

Q: And the Activity [4]?
A: Its Activity is “Dose-dependent effect”.

Q: And the inhibition at 50 µM [6]?
A: Its inhibition at 50 µM is 16.9%.

Q: And the inhibition at 10 µM [7]?
A: The inhibition at 10 µM was 23.1%.

Q: And the inhibition at 5 µM [8]?
A: The inhibition at 5 µM was 25.2%.
